PMC9024523, “Phenoxyaromatic Acid Analogues as Novel Radiotherapy Sensitizers: Design, Synthesis and Biological Evaluation” (Molecules, 2022)
pIC50: −log10 of the molar value. “And” between values parts separate entries of the source, which are not always exact repeats. Identical values can stand only once. “Also recorded” adds a separate entry of the source.

Legend:
[1] = test system: mouse red blood cells; test: In vitro red blood cell-based assay (oxygen equilibrium curve, Softron analyzer); conditions: final effector concentration 2 mM, mean ± SD; for P50/P50C: P50C = control with 1% DMSO; for P50: 1% DMSO; for P50 / ∆P50: mouse red blood cells; for ∆P50: ∆P50 = P50 − P50C
Excerpt: In the first stage of our research, three series of analogues were designed and synthesized to explore refinement of the hydrophobic parts of 19f, 19m, 24a and 24b; hinge areas of 18g, 19b and 19y; and tail regions of 15c, 15d and 16c, respectively. We used the Softron Analyzer to evaluate the effect of these compounds on the half-blood oxygen saturation(P50) value of red blood cells. The most promising phenoxyaromatic acid compound, efaproxiral, was used as a positive control. […] The results reminded us that the modification of the hydrophobic part or linker extension is beneficial to improve an allosteric effect.
Eight-week-old female C57BL6J mice were purchased from Beijing Vital River Laboratory Animal Technology Co., Ltd. A total of 540 μL mouse blood was added into the 1.5 mL centrifuge tube, followed by adding 60 μL 3.8% sodium citrate. The mixture was then centrifuged at 1500 rpm for 10 min, the supernatant was carefully aspirated, and the cells were washed three times with PBS solution. After mixing packed red blood cells with Alsever’s solution in a ratio of 1:1, a blood gas analyzer (RADIOMETER ABL 90) was used to analyze the red blood cell density and hemoglobin concentration.
All of the compounds were prepared as 200 mM stock solutions in DMSO. Oxygen equilibrium measurements were performed with the Softron analyzer (Softron Medical Products, Beijing, China) using mouse red blood cells. The samples were prepared by adding 3 mg hemoglobin equivalent of red blood cells into 3.92 mL loading buffer (100 mM NaCl, 50 mM bis-Tris at pH 7.2 and 25 °C), followed by 20 μL 10% Dimethicone as a defoamer and 20 μL 20% BSA. Afterwards, 40 μL stock solution was added, and the mixture was loaded to the sample cell and fully deoxygenated by blowing into nitrogen at 37 °C for 15 min. Then, the oxygen equilibrium curve was recorded by blowing into oxygen.

[2] = test system: HEK293 cells; test: Cell Titer-Glo cytotoxicity assay, HEK293; assay type: cell-based
Procedure: (§1) For further in vivo evaluation of newly synthesized compounds, 19c and 19t were selected as candidates. Hemoglobin allosteric effectors require a relatively high blood concentration to be effective. Cytotoxicity evaluation was conducted out of consideration for medication safety. HEK293 and U87MG cells were used to evaluate the cytotoxicity.
(§2) Luciferase-transfected human glioma cells (U87-luc) and HEK293 cells were kindly provided by Dr. Nie and cultured in Dulbecco’s Modified Eagle Medium (CM10013, MacGene) with 10% fetal bovine serum (1966173C, Gibco) and 1% penicillin-streptomycin in a humidified atmosphere of 5% CO2 at 37 °C.
(§3) Cells were plated in a 96-well plate at a density of 2000 cells/well and then treated with 19c or 19t at gradient concentrations of 10^1, 10^2, 10^3, 10^4, 10^5, 10^6and 10^7 nM. Compounds 19c and 19t were prepared as the sodium salt by adding saturated sodium bicarbonate in the process of stock solution preparation. Cell viability was evaluated on the indicated days after treatment with a Cell Titer-Glo Luminescent Cell Viability Assay kit (G7572, Promega, Madison, WI, USA) according to the manufacturer’s instructions. All data were normalized to those on day 0 and presented as the mean ± standard deviation (SD).

[3] = test system: U87MG cells; test: Cell Titer-Glo cytotoxicity assay, U87MG; assay type: cell-based, human
Procedure: as §1, §2, §3

| Compound | P50/P50C [1] | P50 [1] [mmHg] | ∆P50 [1] | further results |
| --- | --- | --- | --- | --- |
| C#Cc1cccc(NC(=O)Cc2ccc(OC(C)(C)C(=O)O)cc2)c1 [19n-1, 2-(4-(2-((3-ethynylphenyl)amino)-2-oxoethyl)phenoxy)-2-methylpropanoic acid] | 1.79 ± 0.04 | 80.97 ± 1.77 | 38.73 mmHg and 38.73 ± 2.47 mmHg | – |
| CC(C)(Oc1ccc(CC(=O)Nc2ccc(-c3ccccc3)cc2)cc1)C(=O)O [19o, 2-(4-(2-([1,1′-biphenyl]-4-ylamino)-2-oxoethyl)phenoxy)-2-methylpropanoic acid] | 1.81 ± 0.04 | 74.56 ± 1.75 | 33.37 mmHg | ∆P50 ([1]; listed as 190): 33.37 ± 1.75 mmHg |
| CC(C)(Oc1ccc(CC(=O)Nc2cccc(-c3ccccc3)c2)cc1)C(=O)O [19p, 2-(4-(2-([1,1′-biphenyl]-3-ylamino)-2-oxoethyl)phenoxy)-2-methylpropanoic acid] | 1.87 ± 0.02 | 77.10 ± 0.66 | 35.91 mmHg and 35.91 ± 0.66 mmHg | – |
| CC(C)(Oc1ccc(CC(=O)Nc2ccc(C#N)cc2)cc1)C(=O)O [19q, 2-(4-(2-((4-cyanophenyl)amino)-2-oxoethyl)phenoxy)-2-methylpropanoic acid] | 1.32 ± 0.30 | 59.60 ± 13.58 | 14.36 ± 13.58 mmHg | – |
| CCN(CC)c1ccc(NC(=O)Cc2ccc(OC(C)(C)C(=O)O)cc2)cc1 [19r, 2-(4-(2-((4-(diethylamino)phenyl)amino)-2-oxoethyl)phenoxy)-2-methylpropanoic acid] | 1.57 ± 0.02 | 65.81 ± 6.64 | 23.97 ± 1.82 mmHg | – |
| COc1ccc(NC(=O)Cc2ccc(OC(C)(C)C(=O)O)cc2)cc1 [19s, 2-(4-(2-((4-methoxyphenyl)amino)-2-oxoethyl)phenoxy)-2-methylpropanoic acid] | 1.45 ± 0.01 | 71.87 ± 0.64 | 22.29 ± 0.64 mmHg | – |
| CC(C)(Oc1ccc(/C=C/C(=O)Nc2cc(Cl)cc(Br)c2)cc1)C(=O)O [19w, (E)-2-(4-(3-((3-bromo-5-chlorophenyl)amino)-3-oxoprop-1-en-1-yl)phenoxy)-2-methylpropanoic acid] | 1.50 ± 0.08 | 56.76 ± 2.93 | 18.85 ± 2.93 mmHg | – |
| C=CCN(CC=C)C(=O)Cc1ccc(OC(C)(C)C(=O)O)cc1 [24a, 2-(4-(2-(diallylamino)-2-oxoethyl)phenoxy)-2-methylpropanoic acid] | 1.25 ± 0.21 | 55.80 ± 18.99 | 11.80 ± 11.11 mmHg | – |
| CC1Cc2ccccc2N1C(=O)Cc1ccc(OC(C)(C)C(=O)O)cc1 (stereo not shown) [24b, 2-methyl-2-(4-(2-(2-methylindolin-1-yl)-2-oxoethyl)phenoxy)propanoic acid] | 1.46 ± 0.12 | 66.26 ± 5.30 | 21.02 ± 5.30 mmHg | – |
| CC(C)(Oc1ccc(CC(=O)Nc2ccc3c(c2)OCO3)cc1)C(=O)O [24c, 2-(4-(2-(benzo[d][1,3]dioxol-5-ylamino)-2-oxoethyl)phenoxy)-2-methylpropanoic acid] | 1.58 ± 0.01 | 69.62 ± 12.16 | 25.61 ± 4.27 mmHg | – |
| CC(C)(Oc1ccc(CC(=O)Nc2ccc3ccccc3c2)cc1)C(=O)O [24d, 2-methyl-2-(4-(2-(naphthalen-2-ylamino)-2-oxoethyl)phenoxy)propanoic acid] | 1.93 ± 0.01 | 79.50 ± 0.47 | 38.31 mmHg and 38.31 ± 0.47 mmHg | – |
| CC(C)(Oc1ccc(CC(=O)NC(c2ccccc2)c2ccccc2)cc1)C(=O)O [24e, 2-(4-(2-(benzhydrylamino)-2-oxoethyl)phenoxy)-2-methylpropanoic acid] | 1.33 ± 0.24 | 59.61 ± 20.96 | 15.61 ± 13.07 mmHg | – |
| CC(C)(Oc1ccc(CC(=O)N(Cc2ccccc2)Cc2ccccc2)cc1)C(=O)O [24f, 2-(4-(2-(dibenzylamino)-2-oxoethyl)phenoxy)-2-methylpropanoic acid] | 1.23 ± 0.12 | 54.51 ± 14.91 | 10.51 ± 7.02 mmHg | – |
| CCCCCCNC(=O)Cc1ccc(OC(C)(C)C(=O)O)cc1 [24g, 2-(4-(2-(hexylamino)-2-oxoethyl)phenoxy)-2-methylpropanoic acid] | 1.10 ± 0.04 | 46.17 ± 7.11 | 4.34 ± 2.30 mmHg | – |
| CNC(=O)Cc1ccc(OC(C)(C)C(=O)O)cc1 [24h, 2-methyl-2-(4-(2-(methylamino)-2-oxoethyl)phenoxy)propanoic acid] | 1.40 ± 0.11 | 58.11 ± 1.93 | 16.27 ± 2.88 mmHg | – |
| (E)-2-(4-(3-((3-iodophenyl)amino)-3-oxoprop-1-en-1-yl)phenoxy)-2-methylpropanoic acid [19v] | 1.71 ± 0.05 | 77.49 ± 2.11 | 32.25 ± 2.11 mmHg | K (Hill coefficient of the oxygen dissociation curve at 50% saturation) [1]: 2.23 ± 0.28 |
| (E)-2-(4-(3-((4-bromophenyl)amino)-3-oxoprop-1-en-1-yl)phenoxy)-2-methylpropanoic acid [19u] | 1.67 ± 0.09 | 63.15 ± 3.48 | 25.24 ± 3.48 mmHg | K (Hill coefficient of the oxygen dissociation curve at 50% saturation) [1]: 1.96 ± 0.17 |
| (E)-2-methyl-2-(4-(3-((3-(methylthio)phenyl)amino)-3-oxoprop-1-en-1- yl)phenoxy) propanoic acid [19t] | 2.13 ± 0.07 | 89.62 ± 2.02 | 44.38 mmHg and 44.38 ± 2.02 mmHg | K (Hill coefficient of the oxygen dissociation curve at 50% saturation) [1]: 2.43 ± 0.16; cytotoxicity (summary statement) ([2]; HEK293 (normal) cells): cytotoxic toward both cells with no selectivity; also recorded: cytotoxic to both normal and glioma cells at low micromolar levels without selectivity; cytotoxicity ([2]; HEK293 cells, concentration of 10 μm): showed cytotoxicity; TC50 ([2]; HEK293 cells, sodium salt stock): 165 µM; cytotoxicity (summary statement) ([3]; U87MG (glioma) cells): cytotoxic toward both cells with no selectivity; also recorded: cytotoxic to both normal and glioma cells at low micromolar levels without selectivity; cytotoxicity ([3]; U87MG cells, concentration of 10 μm): showed cytotoxicity; pIC50 ([3]; U87MG cells, sodium salt stock): 3.74 |
